Laboratory results: patent publication EP0001618A2, “Process for the preparation of di-N-oxides and their pharmaceutical use” (BAYER AG, priority 1977, dated 1979)

Test system: E. coli Neumann
Test: Subcutaneous ED100 in infected mice
Format: in vivo
Conditions: Escherichia coli, sc, mice infected with E. coli Neumann, mg/kg body weight, ED100 = dose that cures 100 % of the animals, read-out: Subkutane ED100 bei infizierten Mäusen

Cc1c(C(=O)N2CN(C)CCN(C)C2)[n+]([O-])c2ccccc2[n+]1[O-] [Beispiel 1]
ED100: 5 to 10 mg/kg
